From PubChem BioAssay (NCI)
Values joined by “and” are separate entries in the source; they are usually repeats but may differ in a detail not shown here. Equal values may be shown once.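 Interpolation was linear, between the two tested concentrations surrounding the appropriate level; five concentrations were tested over 48 hours in 96-well plates. The concentration for 50% growth inhibition is given as GI50. TGI: total growth inhibition.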

Columns and labels:
Test in all cases: NCI-60 cell line screen, 48 h
[1] = system: IGROV1 ovarian
[2] = system: LOX IMVI melanoma
[3] = system: OVCAR-8 ovarian
[4] = system: SF-539 CNS
[5] = system: SR leukemia
[6] = system: 786-0 renal
[7] = system: OVCAR-5 ovarian
[8] = system: PC-3 prostate
[9] = system: CCRF-CEM leukemia
[10] = system: DU-145 prostate

| SMILES | GI50 [1] | TGI [1] | GI50 [2] | TGI [2] | GI50 [3] | TGI [3] | GI50 [4] | TGI [4] | GI50 [5] | TGI [5] | GI50 [6] | TGI [6] | GI50 [7] | TGI [7] | GI50 [8] | TGI [8] | GI50 [9] | TGI [9] | GI50 [10] | TGI [10] |
| --- | --- | --- | --- | --- | --- | --- | --- | --- | --- | --- | --- | --- | --- | --- | --- | --- | --- | --- | --- | --- |
| O=C(Nc1ccc(OC(F)(F)F)cc1)c1sccc1NCc1ccnc2ccccc12 | 1.68 µM | 6.37 µM | 2.85 µM | 13.5 µM | 4.18 µM | > 56.4 µM | 4.3 µM | > 100 µM | 4.25 µM | > 100 µM | 7.53 µM | > 88.1 µM | 7.73 µM | > 100 µM | 3.74 µM | > 83.3 µM | 3.72 µM | > 100 µM | 3.65 µM | > 100 µM |
| CS(=O)(=O)c1ccc(Cl)c([N+](=O)[O-])c1 | 18 µM | 45.1 µM | 10.1 µM | 23.4 µM | 17.7 µM | 36.8 µM | 19.2 µM | 34.4 µM | 15.3 µM | 46.6 µM | 19.9 µM | 36.8 µM | 20.1 µM | 36.1 µM | 19.1 µM | 37.5 µM | 19.2 µM | 52.2 µM | 13.3 µM | 26.4 µM |
| COc1cc2cc(Oc3ccc(NC(=O)c4cccc(C(F)(F)F)c4)cc3)c(C)nc2cc1OC | 6.78 µM | > 100 µM | 4.36 µM | > 100 µM | 6.91 µM | > 100 µM | 8.35 µM | > 100 µM | 3.25 µM | > 100 µM | 5.31 µM | > 100 µM | > 100 µM | > 100 µM | 2.85 µM | > 100 µM | – | – | 8.48 µM | > 100 µM |
| S=C(N/N=C/c1cc(Cl)cc(Cl)c1)NC12CC3CC(CC(C3)C1)C2 | 8.8 µM | > 100 µM | 6.09 µM | > 100 µM | 4.87 µM | > 100 µM | 8.85 µM | > 100 µM | 5.02 µM | > 32 µM | 8.63 µM | > 100 µM | 13.6 µM | > 100 µM | > 30.2 µM | > 100 µM | > 61.1 µM | > 100 µM | 12.8 µM | > 100 µM |
| Nc1c(C(=O)Nc2ccc([As](=O)(O)O)cc2)cnc2nnnn12 | – | > 100 µM | – | > 100 µM | – | > 100 µM | – | > 100 µM | – | > 100 µM | – | > 100 µM | – | > 100 µM | – | > 100 µM | – | > 100 µM | – | > 100 µM |
| CC(C)n1c(/C=C/[C@@H](O)C[C@@H](O)CC(=O)O)c(-c2ccc(F)cc2)c2ccccc21 | 2.99 µM and 2.68 µM | > 100 µM | 0.465 µM and 0.653 µM | > 40.1 µM and 5.62 µM | 1.32 µM and 0.842 µM | > 100 µM | 25.7 µM and 10.5 µM | > 100 µM | 2.16 µM and 2.8 µM | > 61.7 µM | 4.71 µM and 5.31 µM | > 100 µM | 18.5 µM and 26.6 µM | > 100 µM | 0.371 µM and 0.65 µM | > 100 µM | 13.8 µM and 13.4 µM | > 100 µM | 24.8 µM and 26.4 µM | > 100 µM |
| Clc1ccccc1NN(Cc1ccccn1)c1ccccc1Cl | – | 42.2 µM | – | 32.8 µM | – | 39.9 µM | – | 36.6 µM | – | 34.1 µM | – | 31.6 µM | – | 45.7 µM | – | > 100 µM | – | – | – | > 100 µM |
| Clc1ccc(COC(Cn2ccnc2)c2ccc(Cl)cc2Cl)cc1 (stereo not given) | 2.62 µM | 12.3 µM and 25.8 µM and 26.1 µM | 0.533 µM | – | 1.7 µM | 10.1 µM and 28.7 µM and 32.8 µM | 4.6 µM | 16.4 µM and 38.3 µM and 29.4 µM | 2.79 µM | 10.6 µM and 21.6 µM and 14.7 µM | 1.88 µM | 4.01 µM and 25.8 µM and 26.3 µM | 4.24 µM | 16.8 µM and 24.4 µM and 28.1 µM | 1.8 µM | 8.78 µM and 23.4 µM and 21.9 µM | 3.22 µM | 14.1 µM and 23.7 µM and 21.1 µM | 5.41 µM | 17.8 µM and 30.1 µM and 28.2 µM |
| CN1CCCN(CCNc2nccc(-c3c(-c4cccc(O)c4)nc4sccn34)n2)S1(=O)=O | 3.93 µM and 5.33 µM | 16.6 µM and 43.6 µM | 1.55 µM and 1.99 µM | 16.7 µM and 21.5 µM | – | – | 18.7 µM and 22.2 µM | 75 µM and > 100 µM | 4.57 µM and 2.85 µM | 35.2 µM and 27.8 µM | 5.55 µM and 7.14 µM | 72.4 µM and > 100 µM | 27 µM and 32.3 µM | 75 µM and > 100 µM | 16.3 µM and 14.6 µM | 75 µM and > 100 µM | 8.29 µM and 4.7 µM | 75 µM and 46.6 µM | 6.84 µM and 6.32 µM | 46.9 µM and > 59.3 µM |
| CC(C)(C)OC(=O)NCC(C#N)CNC(=O)OC(C)(C)C | – | > 100 µM | – | > 100 µM | – | > 100 µM | – | > 100 µM | – | > 100 µM | – | > 100 µM | – | > 100 µM | – | > 100 µM | – | > 100 µM | – | > 100 µM |
| COc1cc(/C=C2\CN(C)CC3=C2Nc2nc(SC)[nH]c(=O)c2C3c2cc(OC)c(OC)c(OC)c2)cc(OC)c1OC (stereo not given) | 3.1 µM | 12.6 µM | 1.66 µM | 3.94 µM | 2.89 µM | > 100 µM | 3.64 µM | 15.6 µM | 1.48 µM | > 100 µM | 4.01 µM | 16.9 µM | 4.83 µM | 16.7 µM | 3.63 µM | 32.4 µM | – | – | 3.6 µM | 12.1 µM |
| COC1/C=C/OC2(C)Oc3c(C)c(O)c4c(c3C2=O)C(=O)C=C(NC(=O)/C(C)=C\C=C\C(C)C(OC=O)C(C)C(O)C(C)C(OC(C)=O)C1C)C4=O (stereo not given) | – | 34.7 µM | – | 14.1 µM | – | 33.5 µM | – | 32.9 µM | – | 8.08 µM | – | 20.8 µM | – | 36.4 µM | – | 25.1 µM | – | 6.4 µM | – | 33 µM |
| Cc1cc2c(cc1C)NC1=C(N2)OC(c2c[nH]c3ccc(COc4ccccc4)cc23)C1=O (stereo not given) | – | > 100 µM | – | > 100 µM | – | > 100 µM | – | 95.3 µM | – | > 100 µM | – | > 100 µM | – | > 100 µM | – | > 100 µM | – | – | – | > 100 µM |
| COC(=O)c1ccc2c(c1)C(NC(C)=O)CCc1cc(OC)c(OC)c(OC)c1-2 (stereo not given) | – | > 41.1 µM | – | > 96.5 µM | – | 9.1 µM | – | 0.056 µM | – | 2.68 µM | – | 93.3 µM | – | > 95.9 µM | – | > 36.9 µM | – | > 35.6 µM | – | 0.0865 µM |
| CCOC(=O)c1c(NC(=O)c2ccc(C(C)C)cc2)sc2c(CN(C)C)c(O)ccc12 | 2.89 µM | 8.69 µM | 1.76 µM | 3.23 µM | 3.56 µM | 16.3 µM | 1.74 µM | 3.23 µM | 2.09 µM | 6.44 µM | 1.79 µM | 3.36 µM | 2.92 µM | 9.49 µM | 2.18 µM | 5.71 µM | 2.33 µM | 7.35 µM | 2.2 µM | 5.21 µM |
| CCN(CC)c1ccc(NC(=S)NN(C)C)cc1 | – | > 10 µM | – | > 10 µM | – | > 10 µM | – | > 10 µM | – | > 10 µM | – | > 10 µM | – | – | – | > 10 µM | – | > 10 µM | – | > 10 µM |
